Measurements reported in ChEMBL document CHEMBL3243969, “Synthesis and chemical carcinogen inhibitory activity of 2-tert-butyl-4-hydroxyanisole” (J Med Chem, 1979).
Where “and” joins values, the source holds several entries; their conditions need not be identical. Equal entries are not always repeated.

How the values were obtained:
Mus musculus [1] = assay: Toxicity in ICR/Ha mouse forestomach assessed as body weight gained at 5 mg/kg administered through diet for 1 week prior to benzo[alpha]pyrene challenge and continued additional 2 days post last dose of benzo[alpha]pyrene relative to control; assay type: organism-based, Stomach; parameters: dose 5 mg/kg; details: in vivo, po
Mus musculus [2] = assay: Toxicity in ICR/Ha mouse forestomach assessed as diet intake at 5 mg/kg administered through diet for 1 week prior to benzo[alpha]pyrene challenge and continued additional 2 days post last dose of benzo[alpha]pyrene (reference value: 4.3 g/day); assay type: organism-based, Stomach; parameters: dose 5 mg/kg; details: in vivo, po
Mus musculus [3] = assay: (§1) Antineoplastic activity in ICR/Ha mouse forestomach assessed as decrease in benzo[alpha]pyrene-induced tumor incidence at 5 mg/kg administered through diet for 1 week prior to benzo[alpha]pyrene challenge and continued additional 2 days post last dose of benzo[alpha]pyrene by dissecting microscopic analysis relative to control; assay type: functional, Stomach; parameters: scale not given: the % may be the effect or the level left
Mus musculus [4] = assay: as §1, with “inhibition of” for “decrease in”, “growth” for “incidence”; assay type: functional, Stomach
[5] = Antioxidant activity of the compound relative to control; assay type: functional

Structure (SMILES): COc1ccc(O)c(C(C)(C)C)c1.COc1ccc(O)cc1C(C)(C)C [BUTYLATED HYDROXYANISOLE]
- Activity (Mus musculus [1]): 10.8 g and 7.4 g
- Activity (Mus musculus [2]): 3.6 g/day and 3.7 g/day
- Activity (Mus musculus [3]): 30% and 10%
- TGI (Mus musculus [4]; 5 mg/kg): 50%
- inhibition in vivo at 5 mg/kg (Mus musculus [4]; Mus musculus, ICR/Ha, Stomach, read-out: TGI): 70%
- fold change (FC) [5]: 1.1 and 0.4
